# Test results: US8399511B2, “Two types of crystalline of pinocembrin, their preparation and their use for manufacture of pharmaceutical compositions” (CSPC Zhongqi Pharmaceutical Technology (Shijiazhuang) Co., …, priority 2008, dated 2013)
# Experiment: In vivo absorption and blood concentration after oral administration of pinocembrin crystalline forms
# Design: species or system SD rats
# Conditions: for Blood concentration of pinocembrin: fasted SD rats, arterial blood, HPLC, group average, 50 mg/kg
# Description: • 1. Monocrystal X-ray analysis • Instrument: MAC DIP-2030K area detector • Test condition: tube voltage: 50 KV, tube flow: 80 mA, ω scanning, MoKα, 2θ≦50.0°, scan range: 0-180°, pivot angle: 6°, step: 6°, scan rate: 1.8°/min. • 2. Powder X-ray analysis • Instrument: Rigaku D/max 2550 powder X-ray diffractometer • Test conditions: voltage: 40 KV, current: 150 mA, scan rate: 8°/min. • 3. DSC analysis • Instrument type: Seiko Instruments Inc. Differential Scanning Calorimeter • Test conditions: purge gas: N2, heating rate: 10° C. /min. • Temperature range: 25-250° C. • 4. IR absorbance spectra • Instrument Nicolet FT-IR spectrometer: IMPACT 400 • Test conditions: KBr pellet • 5. HPCL analysis • Instrument: SHIMADZU LC-10Avp high performance liquid chromatography, SPD-M10Avp diode array detector, CLASS-VP chromatography data system; column: Alltch C18(5μ, 150×4.6 mm); test conditions: column temperature: room temperature; wavelength: 290 nm; mobile phase: methanol/phosphate saline pH 3.0 (64/36); flow rate : 1.0 mL/min; injection volume: 20 μL; injection concentration: 500.0 μg/mL Preparation 1: Synthesis of Pinocembrin Sample
# 18 of SD rats, female and male each half, with body weight of 230˜250 g, were randomized into 3 groups, with 6 rats each group and female half. After 10 hours of fasting but free water intake, the rats were administrated with pinocembrin solid active ingredient powder of α, β or 1:1 (α+β) mixed crystalline forms, at a dose of 50 mg/kg to stomach. Then the arterial blood samples at different times were taken and the contents of pinocembrin were determined.
# [1] = 10 min after oral (to stomach) 50 mg/kg solid powder
# [2] = 20 min after oral (to stomach) 50 mg/kg solid powder
# [3] = 30 min after oral (to stomach) 50 mg/kg solid powder
# [4] = 40 min after oral (to stomach) 50 mg/kg solid powder
SMILES,Blood concentration of pinocembrin [1] [peak area value],Blood concentration of pinocembrin [2] [peak area value],Blood concentration of pinocembrin [3] [peak area value],Blood concentration of pinocembrin [4] [peak area value],"Blood concentration compared with β crystalline form (same dosage (50 mg/kg) by oral administration, rats)","Blood concentration of pinocembrin (10 min after oral (to stomach) 50 mg/kg solid powder, listed as β crystalline from) [peak area value]","Blood concentration of pinocembrin (20 min after oral (to stomach) 50 mg/kg solid powder, listed as β crystalline from) [peak area value]","Blood concentration of pinocembrin (30 min after oral (to stomach) 50 mg/kg solid powder, listed as β crystalline from) [peak area value]","Blood concentration of pinocembrin (40 min after oral (to stomach) 50 mg/kg solid powder, listed as β crystalline from) [peak area value]","Uptake rate by organism relative to α crystalline form (rat, in vivo) [times]"
"O=C1C[C@@H](c2ccccc2)Oc2cc(O)cc(O)c21 (stereo in doubt) [1:1 (α + β) crystalline forms, 5,7-dihydroxy-2-phenyl-4-chromanone]",8.5,15.6,7.9,7.1,,,,,,
"O=C1C[C@@H](c2ccccc2)Oc2cc(O)cc(O)c21 (stereo in doubt) [α crystalline form, 5,7-dihydroxy-2-phenyl-4-chromanone]",3.8,9.7,4.4,3.5,obviously lower,,,,,
"O=C1C[C@@H](c2ccccc2)Oc2cc(O)cc(O)c21 (stereo in doubt) [β crystalline form, 5,7-dihydroxy-2-phenyl-4-chromanone]",,,,,,13.2,48.6,14.6,14.2,≥ 2
